# Reference: ChEMBL document CHEMBL5252597, “Synthesis and biological evaluation of N-(3-fluorobenzyl)-4-(1-(methyl-d3)-1H-indazol-5-yl)-5-(6-methylpyridin-2-yl)-1H-imidazol-2-amine as a novel, potent ALK5 receptor inhibitor” (Bioorg Med Chem Lett, 2023)
# Biological target: Cytochrome P450 3A4 (Homo sapiens, UniProt P08684)
# Test: Inhibition of CYP3A4 (unknown origin)
# Format: ADME
# Settings: not given
# Cytochrome P450 3A4, sequence (P08684 whole entry): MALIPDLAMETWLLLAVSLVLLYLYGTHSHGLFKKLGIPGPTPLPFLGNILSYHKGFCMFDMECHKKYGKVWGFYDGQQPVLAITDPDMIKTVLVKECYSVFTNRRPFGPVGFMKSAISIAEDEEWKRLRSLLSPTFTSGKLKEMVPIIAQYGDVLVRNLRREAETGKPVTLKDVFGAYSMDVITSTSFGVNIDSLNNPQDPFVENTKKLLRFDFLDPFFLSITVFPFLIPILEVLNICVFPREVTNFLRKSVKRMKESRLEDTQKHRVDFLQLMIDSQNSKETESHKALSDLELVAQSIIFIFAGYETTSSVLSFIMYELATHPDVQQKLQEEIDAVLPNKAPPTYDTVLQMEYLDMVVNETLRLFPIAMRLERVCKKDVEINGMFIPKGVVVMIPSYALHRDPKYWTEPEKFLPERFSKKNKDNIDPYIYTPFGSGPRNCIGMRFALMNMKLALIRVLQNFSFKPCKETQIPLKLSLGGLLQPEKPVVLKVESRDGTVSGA
row,IC50 [µM],Structure (SMILES)
1,> 10,Cc1cccc(-c2[nH]c(NCc3cccc(F)c3F)nc2-c2ccc3[nH]ncc3c2)n1
2,> 10,Cc1cccc(-c2[nH]c(NCc3cccc(F)c3)nc2-c2ccc3[nH]ncc3c2)n1

# Biological target: Cytochrome P450 2D6 (Homo sapiens, UniProt P10635)
# Test: Inhibition of CYP2D6 (unknown origin)
# Format: ADME
# Settings: not given
# Cytochrome P450 2D6, sequence (P10635 whole entry): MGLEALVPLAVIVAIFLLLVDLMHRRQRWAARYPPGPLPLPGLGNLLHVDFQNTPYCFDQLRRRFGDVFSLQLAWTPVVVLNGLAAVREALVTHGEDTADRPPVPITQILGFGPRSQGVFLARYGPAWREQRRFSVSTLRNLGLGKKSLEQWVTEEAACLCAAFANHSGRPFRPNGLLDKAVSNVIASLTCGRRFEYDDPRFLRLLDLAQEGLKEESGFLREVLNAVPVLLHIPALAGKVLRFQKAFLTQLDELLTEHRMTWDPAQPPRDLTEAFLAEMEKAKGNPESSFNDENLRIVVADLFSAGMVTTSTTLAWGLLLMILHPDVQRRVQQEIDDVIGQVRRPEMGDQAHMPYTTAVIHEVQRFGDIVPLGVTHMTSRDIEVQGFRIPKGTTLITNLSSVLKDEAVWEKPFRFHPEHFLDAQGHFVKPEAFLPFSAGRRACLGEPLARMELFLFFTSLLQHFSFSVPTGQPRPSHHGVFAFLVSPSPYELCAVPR
row,IC50 [µM],Structure (SMILES)
1,6.9,Cc1cccc(-c2[nH]c(NCc3cccc(F)c3F)nc2-c2ccc3[nH]ncc3c2)n1
2,6.7,Cc1cccc(-c2[nH]c(NCc3cccc(F)c3)nc2-c2ccc3[nH]ncc3c2)n1

# Biological target: Cytochrome P450 2C19 (Homo sapiens, UniProt P33261)
# Test: Inhibition of CYP2C19 (unknown origin)
# Format: ADME
# Settings: not given
# Cytochrome P450 2C19, sequence (P33261 whole entry): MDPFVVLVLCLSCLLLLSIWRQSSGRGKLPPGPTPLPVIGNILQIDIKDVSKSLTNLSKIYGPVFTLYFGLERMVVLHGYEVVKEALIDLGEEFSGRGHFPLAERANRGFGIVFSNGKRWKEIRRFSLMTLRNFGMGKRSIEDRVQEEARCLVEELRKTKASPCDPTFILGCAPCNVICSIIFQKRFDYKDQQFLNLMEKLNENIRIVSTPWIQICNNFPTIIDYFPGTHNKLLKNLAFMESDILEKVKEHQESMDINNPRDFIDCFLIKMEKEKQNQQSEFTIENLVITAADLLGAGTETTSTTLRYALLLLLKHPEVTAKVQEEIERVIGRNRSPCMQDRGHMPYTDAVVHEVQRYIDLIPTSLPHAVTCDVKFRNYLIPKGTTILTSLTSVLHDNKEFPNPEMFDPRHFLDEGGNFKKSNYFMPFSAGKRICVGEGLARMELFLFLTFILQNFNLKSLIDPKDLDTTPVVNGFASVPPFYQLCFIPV
row,IC50 [µM],Structure (SMILES)
1,4.3,Cc1cccc(-c2[nH]c(NCc3cccc(F)c3F)nc2-c2ccc3[nH]ncc3c2)n1
2,8.6,Cc1cccc(-c2[nH]c(NCc3cccc(F)c3)nc2-c2ccc3[nH]ncc3c2)n1

# Biological target: Cytochrome P450 2C9 (Homo sapiens, UniProt P11712)
# Test: Inhibition of CYP2C9 (unknown origin)
# Format: ADME
# Settings: not given
# Cytochrome P450 2C9, sequence (P11712 whole entry): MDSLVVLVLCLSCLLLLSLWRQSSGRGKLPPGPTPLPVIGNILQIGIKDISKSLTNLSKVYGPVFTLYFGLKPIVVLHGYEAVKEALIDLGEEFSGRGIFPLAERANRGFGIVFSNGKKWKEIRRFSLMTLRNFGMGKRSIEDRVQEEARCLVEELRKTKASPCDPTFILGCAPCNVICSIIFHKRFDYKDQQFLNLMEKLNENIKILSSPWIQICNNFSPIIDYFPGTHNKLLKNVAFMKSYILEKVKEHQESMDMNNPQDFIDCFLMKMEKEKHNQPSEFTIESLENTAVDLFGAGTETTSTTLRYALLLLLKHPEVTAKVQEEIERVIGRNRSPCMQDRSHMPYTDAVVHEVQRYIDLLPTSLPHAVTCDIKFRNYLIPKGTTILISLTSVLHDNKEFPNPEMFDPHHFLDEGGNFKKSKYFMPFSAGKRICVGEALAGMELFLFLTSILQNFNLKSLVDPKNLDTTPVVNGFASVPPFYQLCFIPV
row,IC50 [µM],Structure (SMILES)
1,0.6,Cc1cccc(-c2[nH]c(NCc3cccc(F)c3F)nc2-c2ccc3[nH]ncc3c2)n1
2,1.1,Cc1cccc(-c2[nH]c(NCc3cccc(F)c3)nc2-c2ccc3[nH]ncc3c2)n1

# Biological target: T1, Cytochrome P450 1A2 (Homo sapiens, UniProt P05177)
# T1 sequence (P05177 whole entry): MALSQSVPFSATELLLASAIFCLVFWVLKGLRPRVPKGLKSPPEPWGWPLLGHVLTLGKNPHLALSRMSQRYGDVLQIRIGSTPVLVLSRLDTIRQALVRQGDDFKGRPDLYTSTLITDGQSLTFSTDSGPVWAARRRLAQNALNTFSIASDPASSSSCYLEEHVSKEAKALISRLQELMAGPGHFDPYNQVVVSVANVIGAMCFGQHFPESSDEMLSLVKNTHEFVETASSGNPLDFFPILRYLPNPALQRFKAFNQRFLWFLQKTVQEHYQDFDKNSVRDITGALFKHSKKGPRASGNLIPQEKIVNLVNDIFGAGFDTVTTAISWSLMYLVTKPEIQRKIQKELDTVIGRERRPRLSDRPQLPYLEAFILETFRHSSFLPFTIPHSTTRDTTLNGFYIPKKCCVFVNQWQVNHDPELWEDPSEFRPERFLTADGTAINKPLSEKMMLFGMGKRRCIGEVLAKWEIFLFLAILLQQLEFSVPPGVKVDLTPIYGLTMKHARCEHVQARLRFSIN
# Test: Inhibition of CYP1A2 (unknown origin)
# Format: ADME
# Settings: not given
row,IC50 [µM],Structure (SMILES)
1,> 10,Cc1cccc(-c2[nH]c(NCc3cccc(F)c3F)nc2-c2ccc3[nH]ncc3c2)n1
2,> 10,Cc1cccc(-c2[nH]c(NCc3cccc(F)c3)nc2-c2ccc3[nH]ncc3c2)n1

# Biological target: T2, Activin receptor type-1 (Homo sapiens, UniProt Q04771)
# T2 sequence (Q04771 whole entry): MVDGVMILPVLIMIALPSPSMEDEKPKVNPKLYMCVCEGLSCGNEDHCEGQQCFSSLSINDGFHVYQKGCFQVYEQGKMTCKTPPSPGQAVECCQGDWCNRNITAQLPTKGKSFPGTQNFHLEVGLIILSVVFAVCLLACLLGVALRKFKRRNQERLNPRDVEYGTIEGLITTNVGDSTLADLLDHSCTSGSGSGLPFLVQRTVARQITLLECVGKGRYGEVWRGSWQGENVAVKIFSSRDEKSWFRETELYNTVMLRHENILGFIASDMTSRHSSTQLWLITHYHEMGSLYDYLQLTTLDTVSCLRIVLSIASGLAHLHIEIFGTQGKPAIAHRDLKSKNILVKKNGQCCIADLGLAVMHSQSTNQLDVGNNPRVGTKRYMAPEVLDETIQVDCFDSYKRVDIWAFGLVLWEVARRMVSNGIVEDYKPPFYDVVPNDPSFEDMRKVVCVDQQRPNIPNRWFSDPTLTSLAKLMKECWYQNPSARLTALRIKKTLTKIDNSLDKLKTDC
# Test: Inhibition of human ALK2 by […] assay
# Settings: not given
row,IC50 [µM],Structure (SMILES)
1,> 10,CCn1ncc2cc(-c3nc(NCc4cccc(F)c4)[nH]c3-c3cccc(C)n3)ccc21
2,> 10,Cc1cccc(-c2[nH]c(NCc3cccc(F)c3)nc2-c2ccc3[nH]ncc3c2)n1

# Biological target: T3, Cytochrome P450 1A2 (Mus musculus, UniProt P00186)
# T3 sequence (P00186 whole entry): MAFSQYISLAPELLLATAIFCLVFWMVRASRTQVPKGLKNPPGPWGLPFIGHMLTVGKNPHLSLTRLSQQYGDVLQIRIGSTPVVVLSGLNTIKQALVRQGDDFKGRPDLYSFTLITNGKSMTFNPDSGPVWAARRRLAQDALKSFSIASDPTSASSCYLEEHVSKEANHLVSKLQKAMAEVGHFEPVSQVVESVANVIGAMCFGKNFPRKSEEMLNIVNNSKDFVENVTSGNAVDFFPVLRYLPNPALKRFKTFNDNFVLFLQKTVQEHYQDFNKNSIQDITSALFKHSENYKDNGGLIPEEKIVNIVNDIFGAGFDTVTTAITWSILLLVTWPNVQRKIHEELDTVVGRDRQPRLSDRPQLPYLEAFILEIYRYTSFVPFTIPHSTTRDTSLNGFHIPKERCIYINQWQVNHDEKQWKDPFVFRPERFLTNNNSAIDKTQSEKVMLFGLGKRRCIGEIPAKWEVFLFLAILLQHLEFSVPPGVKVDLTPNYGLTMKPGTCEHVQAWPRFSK
# Test: Inhibition of mouse CYP1A2
# Format: ADME
# Settings: not given
row,IC50 [µM],Structure (SMILES)
1,67,[2H]C([2H])([2H])n1ncc2cc(-c3nc(NCc4cccc(F)c4)[nH]c3-c3cccc(C)n3)ccc21

# Test system: not listed separately
# Test: Inhibition of mouse CYP2C8
# Format: ADME
# Settings: not given
row,IC50 [µM],Structure (SMILES)
1,38.7,[2H]C([2H])([2H])n1ncc2cc(-c3nc(NCc4cccc(F)c4)[nH]c3-c3cccc(C)n3)ccc21

# Test system: not listed separately
# Test: Inhibition of mouse CYP2C9
# Format: ADME
# Settings: not given
row,IC50 [µM],Structure (SMILES)
1,22.1,[2H]C([2H])([2H])n1ncc2cc(-c3nc(NCc4cccc(F)c4)[nH]c3-c3cccc(C)n3)ccc21

# Test system: not listed separately
# Test: Inhibition of mouse CYP2D6
# Format: ADME
# Settings: not given
row,IC50 [µM],Structure (SMILES)
1,20.5,[2H]C([2H])([2H])n1ncc2cc(-c3nc(NCc4cccc(F)c4)[nH]c3-c3cccc(C)n3)ccc21

# Test system: not listed separately
# Test: Inhibition of mouse CYP3A4
# Format: ADME
# Settings: not given
row,IC50 [µM],Structure (SMILES)
1,16,[2H]C([2H])([2H])n1ncc2cc(-c3nc(NCc4cccc(F)c4)[nH]c3-c3cccc(C)n3)ccc21

# Test system: not listed separately
# Test: Stability of the compound in human plasma assessed as half life
# Format: ADME, cell-free
# Settings: not given
row,half-life [h],Structure (SMILES)
1,> 2,[2H]C([2H])([2H])n1ncc2cc(-c3nc(NCc4cccc(F)c4)[nH]c3-c3cccc(C)n3)ccc21

# Test system: not listed separately
# Test: Stability of the compound in mouse plasma assessed as half life
# Format: ADME, cell-free
# Settings: not given
row,half-life [h],Structure (SMILES)
1,> 2,[2H]C([2H])([2H])n1ncc2cc(-c3nc(NCc4cccc(F)c4)[nH]c3-c3cccc(C)n3)ccc21

# Test system: not listed separately
# Test: Metabolic stability in human liver microsomes assessed as intrinsic clearance
# Format: ADME, Microsome
# Settings: read-out: CLH
row,microsomal CLint [µL/min/mg],Structure (SMILES)
1,23.1,[2H]C([2H])([2H])n1ncc2cc(-c3nc(NCc4cccc(F)c4)[nH]c3-c3cccc(C)n3)ccc21

# Test system: not listed separately
# Test: Cmax in BALB/c mouse at 10 mg/kg, po
# Format: ADME, organism-based
# Parameters: dose 10 mg/kg, route po
# Settings: in vivo
row,Cmax [ng/mL],Structure (SMILES)
1,1720,[2H]C([2H])([2H])n1ncc2cc(-c3nc(NCc4cccc(F)c4)[nH]c3-c3cccc(C)n3)ccc21

# Test system: not listed separately
# Test: Total AUC in BALB/c mouse at 2 mg/kg, iv
# Format: ADME, organism-based
# Parameters: dose 2 mg/kg, route iv
# Settings: in vivo
row,AUC [ng·h/mL],Structure (SMILES)
1,1170,[2H]C([2H])([2H])n1ncc2cc(-c3nc(NCc4cccc(F)c4)[nH]c3-c3cccc(C)n3)ccc21

# Test system: not listed separately
# Test: Total AUC in BALB/c mouse at 10 mg/kg, po
# Format: ADME, organism-based
# Parameters: dose 10 mg/kg, route po
# Settings: in vivo
row,AUC [ng·h/mL],Structure (SMILES)
1,3940,[2H]C([2H])([2H])n1ncc2cc(-c3nc(NCc4cccc(F)c4)[nH]c3-c3cccc(C)n3)ccc21

# Test system: not listed separately
# Test: Tmax in BALB/c mouse at 10 mg/kg, po
# Format: ADME, organism-based
# Settings: in vivo
row,Tmax [h],Structure (SMILES)
1,0.4,[2H]C([2H])([2H])n1ncc2cc(-c3nc(NCc4cccc(F)c4)[nH]c3-c3cccc(C)n3)ccc21

# Test system: not listed separately
# Test: Half life in BALB/c mouse at 2 mg/kg, iv
# Format: ADME, organism-based
# Settings: in vivo
row,half-life [h],Structure (SMILES)
1,1.5,[2H]C([2H])([2H])n1ncc2cc(-c3nc(NCc4cccc(F)c4)[nH]c3-c3cccc(C)n3)ccc21

# Test system: not listed separately
# Test: Half life in BALB/c mouse at 10 mg/kg, po
# Format: ADME, organism-based
# Settings: in vivo
row,half-life [h],Structure (SMILES)
1,1.6,[2H]C([2H])([2H])n1ncc2cc(-c3nc(NCc4cccc(F)c4)[nH]c3-c3cccc(C)n3)ccc21

# Test system: not listed separately
# Test: Clearance in BALB/c mouse at 2 mg/kg, iv
# Format: ADME, organism-based
# Settings: in vivo
row,clearance [mL/min/kg],Structure (SMILES)
1,29,[2H]C([2H])([2H])n1ncc2cc(-c3nc(NCc4cccc(F)c4)[nH]c3-c3cccc(C)n3)ccc21

# Test system: not listed separately
# Test: Volume of distribution in BALB/c mouse at 2 mg/kg, iv
# Format: ADME, organism-based
# Settings: in vivo
row,Vd [L/kg],Structure (SMILES)
1,3.8,[2H]C([2H])([2H])n1ncc2cc(-c3nc(NCc4cccc(F)c4)[nH]c3-c3cccc(C)n3)ccc21

# Test system: not listed separately
# Test: Oral bioavailability in BALB/c mouse at 10 mg/kg
# Format: ADME, organism-based
# Settings: in vivo
row,bioavailability [%],Structure (SMILES)
1,67.6,[2H]C([2H])([2H])n1ncc2cc(-c3nc(NCc4cccc(F)c4)[nH]c3-c3cccc(C)n3)ccc21
